Results reported in PMC8397403, “Physiologically Based Pharmacokinetic Modeling of Transporter-Mediated Hepatic Disposition of Imaging Biomarker Gadoxetate in Rats” (Molecular Pharmaceutics, 2021).
Marks after values point to notes of the source that are not given here.

Test: Bottom-up IVIVE of gadoxetate transporter kinetic data / PBPK model
Parameters: species or system rat
Experimental: IVIVE of gadoxetate CLactive,u and CLpassive,u was performed by scaling these parameters to in vivo values (CLactive,u,in vivo and CLpassive,u,in vivo; mL/min/kg body weight) using a hepatocellularity of 120 × 10^6 cells/g liver,[34] and a liver weight (wliver) of 40 g/kg body weight,[38] as in eq 3. [drawing 3] 3
A reduced PBPK model was developed to describe the PK of gadoxetate in rats; a permeability-limited liver model was implemented capturing relevant processes, as done previously.[6],[41] The compartments represent the blood, spleen, splanchnic organs, liver interstitial space, hepatocytes, and the rest of the body (ROB) vascular and extravascular spaces. The ROB compartment includes muscles, skin, bones, and fat among others. Details of model equations and physiological parameters values are reported in the Supporting Information, Sections 2, 3, and 5.
Standard kinetic models used for MRI contrast agents generally describe the organs by using three compartments: plasma, interstitial, and intracellular spaces.[12],[42],[43] Gadoxetate distributes only in the extracellular space of all the organs; liver is the exception, where gadoxetate undergoes active uptake into the hepatocytes.[44] Therefore, in the gadoxetate PBPK model, the volume of all the compartments, except the blood and the liver, corresponded to the organ extracellular space, that in turn was considered to be composed of the blood within the organ and the interstitial space. For highly vascularized and perfused organs with fenestrated capillaries (e.g., liver), the exchange between the plasma and the interstitial space is generally considered to be fast.[12],[19] Therefore, for liver, spleen, and splanchnic compartments, the extracellular volumes were considered to be the sum of the blood within the organ and the interstitial space volumes. […] A permeability limitation between the vascular and interstitial space was, therefore, assumed for the ROB compartment, as shown in eq 5. [drawing 5] 5 cb, crob,v and crob,ev [μmol/L] are the gadoxetate concentration in blood and ROB vascular and extravascular compartments; Vrob,v and Vrob,ev [L] are the ROB vascular and extravascular compartment volumes, respectively; and PS [L/h] is the permeability surface product.
To describe the gadoxetate-active uptake into the hepatocytes, a permeability-limited liver model was used, as shown in eq 6. [drawing 6] 6 inputsplan [μmol/h] represent the venous input from the splanchnic organs, while inputart [μmol/h] is the input from the hepatic artery; cliv,extr and cliv,cell [μmol/L] are the drug concentrations in the extracellular liver (tissue blood plus interstitial space) and in the hepatocytes, respectively; Vliv,extr and Vliv,int [L] are the extracellular and hepatocytes liver volumes; Qh [L/h] is the liver blood flow; Kliv,extr-b is the extracellular liver to blood partition coefficient; CLactive and CLpassive [L/h] are the active and passive clearances across the hepatocytes cell membrane; CLbiliary [L/h] is the clearance representing the excretion from the hepatocytes into the bile; and fu,liv,cell is the gadoxetate fraction unbound in the hepatocytes (obtained from the in vitro generated data fu,cell). Recent PBPK studies of hepatic transporter substrates have used a 5-compartment liver model[45] and the use of this particular liver model was also explored in the current PBPK modeling.
All the parameters were initially obtained using literature values and in vitro experiments. Prospective transporter clearance IVIVE was performed with the aim of predicting the gadoxetate ΔR1 in blood, spleen, and liver after administration of gadoxetate alone (in the absence of an inhibitor). CLactive, CLpassive, and fu,liv,cell were obtained from the in vitro experimental values obtained in this study, as detailed in the section “Data Analysis and Quantitative Translation”. CLr was fixed to a literature value, as in Table 3. […]

[1] = scaled from in vitro, 120 × 10^6 cells/g liver, 40 g liver/kg

- CLbiliary, bottom-up scaled value (Monte Carlo mean, value assumed equal to CLpassive): 0.014 ^a^, ^c L/h
- CLactive, bottom-up scaled value (mean value calculated from the Monte Carlo analysis, rat 0.25 kg): 0.23 ^a L/h
- PS, bottom-up scaled value (permeability surface product, Monte Carlo mean, value assumed equal to CLpassive): 0.014 ^a^, ^c L/h
- predicted in vivo active uptake clearance (CLactive,u,in vivo) [1]: 14.7 mL/min/kg body weight
- predicted in vivo passive clearance (CLpassive,u,in vivo) [1]: 0.93 mL/min/kg body weight
- CLpassive (scaled from the mean in vitro value in Table 2, fixed in PBPK model): 0.014 L/h
SMILES: CCOc1ccc(C[C@@H](CN(CCN(CC(=O)[O-])CC(=O)[O-])CC(=O)[O-])N(CC(=O)[O-])CC(=O)[O-])cc1.[Gd+3].[H+].[H+] [gadoxetate]
